Source: patent publication US20180296456A1, “Decapeptide-12 Modulation of Sirtuin Gene Expression in Epidermal Keratinocyte Progenitors” (Escape Therapeutics, Inc., priority 2017, published 2018)

How the values were obtained:
SIRT1 = SIRT1 transcription, semi-quantitative RT-PCR in human epidermal progenitors; assay type: cell-based; conditions: 72 h
Experimental: (§1) Human neonatal epidermal progenitors (Thermo Fisher Scientific, NY) were seeded in 6-well plates at a density of 2×10^5 cells/well. Each well received 2 ml of Epilife media containing 60 μM calcium chloride (Thermo Fisher Scientific, NY). Plates were incubated in a humidified chamber at 37 degrees Celsius and 5 percent CO2. Twenty-four hours later, cells were treated with various concentrations of oxyresveratrol or decapeptide-12 dissolved in PBS containing 5 percent DMSO. Control wells received vehicle only (5 percent DMSO and PBS). Final concentration of DMSO in each well was 0.05 percent.
(§2) After a 72 hour incubation period, cells were trypsinized and total RNA extracted, using RNeasy kit (Qiagen, Valencia, Calif.) according to the manufacturer's protocol.
(§3) RNA concentration was determined using nanodrop (Thermo fisher scientific, NY). Two μg of total RNA were used to synthesize cDNA using oligo dT primers and TaqMan reverse transcription reagents (Thermo fisher scientific, NY). The reaction was carried out in DNA Engine Peltier Thermal Cycler (Bio-Rad, Hercules, Calif.). The annealing temperature was 25 degrees Celsius for 10 minutes, followed by first strand synthesis at 48 degrees Celsius for 1 hour, and heat inactivation at 95 degrees Celsius for 5 minutes.
(§4) The SIRT1-7 primers (table 1) were designed using Primer3. The semi-quantitative PCR reactions were performed on a DNA Engine Peltier Thermo Cycler (Bio-Rad, Hercules, Calif.). PCR was carried under the following conditions: denaturation at 94 degrees Celsius for 2 minutes and primer extension at 54 degrees Celsius for 30 seconds in 34 cycles for SIRT 1-7 and the housekeeping gene 18S.
(§5) Samples were run and resolved on a 1.5 percent agarose gel containing 0.5 μg/ml of ethidium bromide and imaged using the FluorChem HD2 Imaging System (Protein simple, San Jose, Calif.). Densitometry analysis was carried out using the AlphaEase FC software (Protein simple, San Jose, Calif.). Intensity ratios were calculated as the intensity value for each gene divided by the intensity value of the internal control gene 18S.
(§6) The effect of the decapeptides P4, P4A, P4B, and P4C upon the transcription levels of sirtuins 1-7 was evaluated. Table 4 summarizes transcription levels for all four decapeptides with the corresponding genes, at tested concentrations of: 10, 30, 50, 100, and 300 (all in μM).

SIRT3 = SIRT3 transcription, semi-quantitative RT-PCR in human epidermal progenitors; assay type: cell-based; conditions: 72 h
Experimental: as §1, §2, §3, §4, §5, §6

SIRT4 = SIRT4 transcription, semi-quantitative RT-PCR in human epidermal progenitors; assay type: cell-based; conditions: 72 h
Experimental: as §1, §2, §3, §4, §5, §6

SIRT5 = SIRT5 transcription, semi-quantitative RT-PCR in human epidermal progenitors; assay type: cell-based; conditions: 72 h
Experimental: as §1, §2, §3, §4, §5, §6

SIRT6 = SIRT6 transcription, semi-quantitative RT-PCR in human epidermal progenitors; assay type: cell-based; conditions: 72 h
Experimental: as §1, §2, §3, §4, §5, §6

SIRT7 = SIRT7 transcription, semi-quantitative RT-PCR in human epidermal progenitors; assay type: cell-based; conditions: 72 h
Experimental: as §1, §2, §3, §4, §5, §6

[1] = MTT cell proliferation assay, fibroblasts; assay type: cell-based, human; conditions: human, MTT, 72 h, read-out: fibroblast proliferation rate after 72 hours
Experimental: Proliferation rates for three human cell lines (epidermal progenitors, melanoblasts, and fibroblasts) were determined using a TACS® MTT Cell Proliferation Kit. Cells were seeded at 2.5×10^4/well in 96-well plates in a humidified atmosphere with 5 percent CO2 at 37 degrees Celsius. Twenty-four hours later, the decapeptides were added to the corresponding wells at varying concentrations and incubated for 72 hours. The remainder of the procedure was performed following the manufacturer's protocol.

[2] = Trypan blue cell viability, 7 days, epidermal progenitors; assay type: cell-based; conditions: human, relative to control, read-out: epidermal progenitor viability after 7 days
Experimental: (§7) The effect of each of the decapeptides upon cell viability was also tested. In particular, cells were incubated with the decapeptide at various concentrations and then counted for viability relative to the control (untreated cells) using trypan blue. Cytotoxicity was measured according to the following formula:
(§8) [1−(# of cells in control−# of live cells in test sample)/# of cells in control]×100 percent.

[3] = Trypan blue cell viability, 7 days, melanoblasts; assay type: cell-based; conditions: human, relative to control, read-out: melanoblast viability after 7 days
Experimental: as §7, §8

[4] = Trypan blue cell viability, 7 days, fibroblasts; assay type: cell-based; conditions: human, relative to control, read-out: fibroblast viability after 7 days
Experimental: as §7, §8

Q: Which “SIRT1 transcription increase relative to control” value (SIRT1; 10 μM) does the source give for “Ac-YRSRKYSSWY-NH2 [P4C, Acetyl-YRSRKYSSWY-amide]” here?
A: The value was 7 ± 3%.

Q: What about the “SIRT1 transcription increase relative to control” value (SIRT1; 30 μM) of the same substance?
A: Its value is 5.00%.

Q: What about the “SIRT1 transcription increase relative to control” value (SIRT1; 50 μM) of the same substance?
A: Its value is 1.00%.

Q: What about the “SIRT1 transcription increase relative to control” value (SIRT1; 100 μM) of the same substance?
A: Its value is 137 ± 8%.

Q: What about the “SIRT1 transcription increase relative to control” value (SIRT1; 300 μM) of the same substance?
A: Its value is 190 ± 9%.

Q: And the “SIRT3 transcription increase relative to control” value (SIRT3; 10 μM)?
A: Its value is 8 ± 3%.

Q: What about the “SIRT3 transcription increase relative to control” value (SIRT3; 30 μM) of the same substance?
A: The value was 6 ± 2%.

Q: What about the “SIRT3 transcription increase relative to control” value (SIRT3; 50 μM) of the same substance?
A: Its value is 45 ± 9%.

Q: And the “SIRT3 transcription increase relative to control” value (SIRT3; 100 μM)?
A: Its value is 82 ± 8%.

Q: And the “SIRT3 transcription increase relative to control” value (SIRT3; 300 μM)?
A: Its value is 159 ± 6%.

Q: And the “SIRT4 transcription increase relative to control” value (SIRT4; 10 μM)?
A: The value was 3 ± 1%.

Q: And the “SIRT4 transcription increase relative to control” value (SIRT4; 30 μM)?
A: Its value is 3 ± 1%.

Q: What about the “SIRT4 transcription increase relative to control” value (SIRT4; 50 μM) of the same substance?
A: Its value is 11 ± 6%.

Q: And the “SIRT4 transcription increase relative to control” value (SIRT4; 100 μM)?
A: The value was 32 ± 9%.

Q: And the “SIRT4 transcription increase relative to control” value (SIRT4; 300 μM)?
A: The value was 67 ± 9%.

Q: What about the “SIRT5 transcription increase relative to control” value (SIRT5; 10 μM) of the same substance?
A: Its value is 4 ± 1%.

Q: And the “SIRT5 transcription increase relative to control” value (SIRT5; 30 μM)?
A: The value was 2 ± 1%.

Q: What about the “SIRT5 transcription increase relative to control” value (SIRT5; 50 μM) of the same substance?
A: Its value is 3 ± 1%.

Q: And the “SIRT5 transcription increase relative to control” value (SIRT5; 100 μM)?
A: Its value is 35 ± 2%.

Q: And the “SIRT5 transcription increase relative to control” value (SIRT5; 300 μM)?
A: The value was 28 ± 9%.

Q: What about the “SIRT6 transcription increase relative to control” value (SIRT6; 10 μM) of the same substance?
A: The value was 12 ± 3%.

Q: And the “SIRT6 transcription increase relative to control” value (SIRT6; 30 μM)?
A: Its value is 9 ± 4%.

Q: And the “SIRT6 transcription increase relative to control” value (SIRT6; 50 μM)?
A: The value was 31 ± 5%.

Q: What about the “SIRT6 transcription increase relative to control” value (SIRT6; 100 μM) of the same substance?
A: The value was 124 ± 7%.

Q: What about the “SIRT6 transcription increase relative to control” value (SIRT6; 300 μM) of the same substance?
A: The value was 87 ± 3%.

Q: What about the “SIRT7 transcription increase relative to control” value (SIRT7; 10 μM) of the same substance?
A: The value was 14 ± 5%.

Q: What about the “SIRT7 transcription increase relative to control” value (SIRT7; 30 μM) of the same substance?
A: Its value is 7 ± 2%.

Q: What about the “SIRT7 transcription increase relative to control” value (SIRT7; 50 μM) of the same substance?
A: The value was 46 ± 5%.

Q: And the “SIRT7 transcription increase relative to control” value (SIRT7; 100 μM)?
A: Its value is 80 ± 11%.

Q: What about the “SIRT7 transcription increase relative to control” value (SIRT7; 300 μM) of the same substance?
A: The value was 130 ± 9%.

Q: And the viability at 72 h, 3 µM ([1]; 3 μM)?
A: The viability at 72 h, 3 µM was 100%.

Q: What about the viability at 72 h, 10 µM ([1]; 10 μM) of the same substance?
A: Its viability at 72 h, 10 µM is 99 ± 1%.

Q: What about the viability at 72 h, 30 µM ([1]; 30 μM) of the same substance?
A: The viability at 72 h, 30 µM was 99 ± 1%.

Q: And the viability at 72 h, 50 µM ([1]; 50 μM)?
A: Its viability at 72 h, 50 µM is 99 ± 1%.

Q: What about the viability at 72 h, 100 µM ([1]; 100 μM) of the same substance?
A: The viability at 72 h, 100 µM was 98 ± 2%.

Q: And the viability at 72 h, 300 µM ([1]; 300 μM)?
A: The viability at 72 h, 300 µM was 97 ± 2%.

Q: And the viability at 72 h, 500 µM ([1]; 500 μM)?
A: The viability at 72 h, 500 µM was 96 ± 2%.

Q: What about the viability at 72 h, 1000 µM ([1]; 1000 μM) of the same substance?
A: The viability at 72 h, 1000 µM was 96 ± 2%.

Q: And the viability at 168 h, 3 µM ([2]; 3 μM)?
A: Its viability at 168 h, 3 µM is 100%.

Q: And the viability at 168 h, 10 µM ([2]; 10 μM)?
A: Its viability at 168 h, 10 µM is 99 ± 1%.

Q: And the viability at 168 h, 30 µM ([2]; 30 μM)?
A: The viability at 168 h, 30 µM was 98 ± 1%.

Q: What about the viability at 168 h, 50 µM ([2]; 50 μM) of the same substance?
A: The viability at 168 h, 50 µM was 97.4 ± 1%.

Q: What about the viability at 168 h, 100 µM ([2]; 100 μM) of the same substance?
A: Its viability at 168 h, 100 µM is 96.6 ± 2%.

Q: What about the viability at 168 h, 300 µM ([2]; 300 μM) of the same substance?
A: The viability at 168 h, 300 µM was 95.7 ± 3%.

Q: What about the viability at 168 h, 500 µM ([2]; 500 μM) of the same substance?
A: Its viability at 168 h, 500 µM is 94.8 ± 3%.

Q: What about the viability at 168 h, 1000 µM ([2]; 1000 μM) of the same substance?
A: Its viability at 168 h, 1000 µM is 94 ± 3%.

Q: And the viability at 168 h, 3 µM ([3]; 3 μM)?
A: Its viability at 168 h, 3 µM is 100%.

Q: What about the viability at 168 h, 10 µM ([3]; 10 μM) of the same substance?
A: The viability at 168 h, 10 µM was 99 ± 1%.

Q: And the viability at 168 h, 30 µM ([3]; 30 μM)?
A: Its viability at 168 h, 30 µM is 98.4 ± 1%.

Q: And the viability at 168 h, 50 µM ([3]; 50 μM)?
A: Its viability at 168 h, 50 µM is 97.9 ± 1%.

Q: And the viability at 168 h, 100 µM ([3]; 100 μM)?
A: Its viability at 168 h, 100 µM is 97 ± 2%.

Q: And the viability at 168 h, 300 µM ([3]; 300 μM)?
A: Its viability at 168 h, 300 µM is 96 ± 3%.

Q: What about the viability at 168 h, 500 µM ([3]; 500 μM) of the same substance?
A: Its viability at 168 h, 500 µM is 95.5 ± 3%.

Q: And the viability at 168 h, 1000 µM ([3]; 1000 μM)?
A: The viability at 168 h, 1000 µM was 94.8 ± 3%.

Q: And the viability at 168 h, 3 µM ([4]; 3 μM)?
A: Its viability at 168 h, 3 µM is 100%.

Q: What about the viability at 168 h, 10 µM ([4]; 10 μM) of the same substance?
A: Its viability at 168 h, 10 µM is 98.9 ± 1%.

Q: What about the viability at 168 h, 30 µM ([4]; 30 μM) of the same substance?
A: The viability at 168 h, 30 µM was 98.3 ± 1%.

Q: And the viability at 168 h, 50 µM ([4]; 50 μM)?
A: Its viability at 168 h, 50 µM is 97.8 ± 1%.

Q: And the viability at 168 h, 100 µM ([4]; 100 μM)?
A: Its viability at 168 h, 100 µM is 97.4 ± 2%.

Q: What about the viability at 168 h, 300 µM ([4]; 300 μM) of the same substance?
A: Its viability at 168 h, 300 µM is 96.5 ± 2%.

Q: What about the viability at 168 h, 500 µM ([4]; 500 μM) of the same substance?
A: The viability at 168 h, 500 µM was 95.7 ± 2%.

Q: And the viability at 168 h, 1000 µM ([4]; 1000 μM)?
A: The viability at 168 h, 1000 µM was 94.9 ± 3%.
